Reference: PMC7168933, “Design, Synthesis and Biochemical Evaluation of Novel Ethanoanthracenes and Related Compounds to Target Burkitt’s Lymphoma” (Pharmaceuticals, 2020)

Columns and labels:
[1] = tested on: MUTU-1 Burkitt lymphoma cell line (EBV+); test: cells; conditions: Mutu-1, 24 h; for IC50: read-out: IC50 MUTU-I 24 h; for viability at 1 µM: read-out: MUTU-1 Cell Viability % 1 μM, 1 μM, 24 h; for viability at 10 µM: read-out: MUTU-1 Cell Viability % 10 μM, 10 μM, 24 h
[2] = tested on: DG-75 Burkitt lymphoma cell line (EBV−, chemoresistant); test: cells; conditions: Homo sapiens, DG-75, 48 h; for viability at 1 µM: read-out: DG-75 Cell Viability % 1 μM, 1 μM, 48 h; for viability at 10 µM: read-out: DG-75 Cell Viability % 10 μM, 10 μM, 48 h

Compound | IC50 [1] | viability at 1 µM [1] | viability at 10 µM [1] | melting point | viability at 1 µM [2] | viability at 10 µM [2]
O=C(c1ccccc1)c1ccc(N2C(=O)C3C4c5ccccc5C(/C=C/[N+](=O)[O-])(c5ccccc54)C3C2=O)cc1 (stereo not shown) [Compound 16i, (E)-13-(4-Benzoylphenyl)-9-(2-nitrovinyl)-9,10-dihydro-9,10-[3,4]epipyrroloanthracene-12,14-dione] | 0.24 µM | 2% | 1.2% | 232 to 234 °C | 77.5% | 2.7%
COc1cc(OC)cc(N2C(=O)C3C4c5ccccc5C(/C=C/[N+](=O)[O-])(c5ccccc54)C3C2=O)c1 (stereo not shown) [Compound 16j, (E)-13-(3,5-Dimethoxyphenyl)-9-(2-nitrovinyl)-9,10-dihydro-9,10-[3,4]epipyrroloanthracene-12,14-dione] | 0.26 µM | 4.2% | 5.4% | 268 to 271 °C | 33.5% | 0.16%
O=C1C2C3c4ccccc4C(/C=C/[N+](=O)[O-])(c4ccccc43)C2C(=O)N1c1cccc(Cl)c1 (stereo not shown) [Compound 16k, (E)-13-(3-Chlorophenyl)-9-(2-nitrovinyl)-9,10-dihydro-9,10-[3,4]epipyrroloanthracene-12,14-dione] |  | 2.7% | 0.84% | 258 to 261 °C | 69% | 0%
O=C1C2C3c4ccccc4C(/C=C/[N+](=O)[O-])(c4ccccc43)C2C(=O)N1c1ccccc1O (stereo not shown) [Compound 16l, (E)-13-(2-Hydroxyphenyl)-9-(2-nitrovinyl)-9,10-dihydro-9,10-[3,4]epipyrroloanthracene-12,14-dione] |  | 2.3% | 0.61% | 203 to 206 °C | 59.2% | 0%
CC(=O)Oc1cccc(N2C(=O)C3C4c5ccccc5C(/C=C/[N+](=O)[O-])(c5ccccc54)C3C2=O)c1 (stereo not shown) [Compound 16m, (E)-3-(9-(2-Nitrovinyl)-12,14-dioxo-9,10-dihydro-9,10-[3,4]epipyrroloanthracen-13-yl)phenyl acetate] | 0.23 µM | 2% | 1.2% | 246 to 248 °C | 35.9% | 0%
Nc1ccc(N2C(=O)C3C4c5ccccc5C(/C=C/[N+](=O)[O-])(c5ccccc54)C3C2=O)cc1 (stereo not shown) [Compound 16n, (E)-13-(4-Aminophenyl)-9-(2-nitrovinyl)-9,10-dihydro-9,10-[3,4]epipyrroloanthracene-12,14-dione] | 0.3 µM | 1.7% | 3.7% | > 300 °C | 20.8% | 0.18%
C/C(=C\C12c3ccccc3C(c3ccccc31)C1C(=O)N(c3ccccc3)C(=O)C12)[N+](=O)[O-] (stereo not shown) [Compound 17a, (E)-9-(2-Nitroprop-1-en-1-yl)-13-phenyl-9,10-dihydro-9,10-[3,4]epipyrroloanthracene-12,14-dione] |  | 79.8% | 68.6% | 263 to 266 °C | 78.3% | 88.9%
CC/C(=C\C12c3ccccc3C(c3ccccc31)C1C(=O)N(c3ccccc3)C(=O)C12)[N+](=O)[O-] (stereo not shown) [Compound 17b, (E)-9-(2-Nitrobut-1-en-1-yl)-13-phenyl-9,10-dihydro-9,10-[3,4]epipyrroloanthracene-12,14-dione] |  | 92.6% | 83.4% | 259 to 263 °C | 96.4% | 99.9%
C/C(=C\C12c3ccccc3C(c3ccccc31)C1C(=O)N(c3ccc(Cl)cc3)C(=O)C12)[N+](=O)[O-] (stereo not shown) [Compound 17c, (E)-13-(4-Chlorophenyl)-9-(2-nitroprop-1-en-1-yl)-9,10-dihydro-9,10-[3,4]epipyrroloanthracene-12,14-dione] |  | 78% | 77.6% | 298 to 300 °C | 96.6% | 86.3%
CC/C(=C\C12c3ccccc3C(c3ccccc31)C1C(=O)N(c3ccc(Cl)cc3)C(=O)C12)[N+](=O)[O-] (stereo not shown) [Compound 17d, (E)-13-(4-Chlorophenyl)-9-(2-nitrobut-1-en-1-yl)-9,10-dihydro-9,10-[3,4]epipyrroloanthracene-12,14-dione] |  | 102% | 99.9% | 275 to 279 °C | 96.6% | 78.4%
CC/C(=C\C12c3ccccc3C(c3ccccc31)C1C(=O)N(c3ccc(OC)cc3)C(=O)C12)[N+](=O)[O-] (stereo not shown) [Compound 17f] |  | 86.5% | 84.5% | 254 to 256 °C | 91.4% | 85.1%
C/C(=C\C12c3ccccc3C(Cl)(c3ccccc31)C1C(=O)N(c3ccccc3)C(=O)C12)[N+](=O)[O-] (stereo not shown) [Compound 17g, (E)-9-Chloro-10-(2-nitroprop-1-en-1-yl)-13-phenyl-9,10-dihydro-9,10-[3,4]epipyrroloanthracene-12,14-dione] |  | 88% | 78.5% | 268 to 271 °C | 85.3% | 84.3%
CC/C(=C\C12c3ccccc3C(Cl)(c3ccccc31)C1C(=O)N(c3ccccc3)C(=O)C12)[N+](=O)[O-] (stereo not shown) [Compound 17h, (E)-9-Chloro-10-(2-nitrobut-1-en-1-yl)-13-phenyl-9,10-dihydro-9,10-[3,4]epipyrroloanthracene-12,14-dione] |  | 107% | 96.3% | 261 to 262 °C | 89.2% | 90.3%
O=C1C2C3c4ccccc4C(/C=C/[N+](=O)[O-])(c4ccccc43)C2C(=O)N1Cc1ccccc1 (stereo not shown) [Compound 17i, (E)-13-Benzyl-9-(2-nitrovinyl)-9,10-dihydro-9,10-[3,4]epipyrroloanthracene-12,14-dione] |  | 74.9% | 0.86% | 232 to 236 °C | 93.1% | 0.67%
C/C(=C\C12c3ccccc3C(c3ccccc31)C1C(=O)N(Cc3ccccc3)C(=O)C12)[N+](=O)[O-] (stereo not shown) [Compound 17j, (E)-13-Benzyl-9-(2-nitroprop-1-en-1-yl)-9,10-dihydro-9,10-[3,4]epipyrroloanthracene-12,14-dione] |  | 94.6% | 85.6% | 232 to 236 °C | 104% | 87.9%
CC/C(=C\C12c3ccccc3C(c3ccccc31)C1C(=O)N(Cc3ccccc3)C(=O)C12)[N+](=O)[O-] (stereo not shown) [Compound 17k, (E)-13-Benzyl-9-(2-nitrobut-1-en-1-yl)-9,10-dihydro-9,10-[3,4]epipyrroloanthracene-12,14-dione] |  | 80.4% | 94% | 188 to 199 °C | 74.8% | 96%
COc1cc(CN2C(=O)C3C4c5ccccc5C(/C=C(\C)[N+](=O)[O-])(c5ccccc54)C3C2=O)cc(OC)c1OC (stereo not shown) [Compound 17l, (E)-9-(2-Nitroprop-1-en-1-yl)-13-(3,4,5-trimethoxybenzyl)-9,10-dihydro-9,10-[3,4]epipyrroloanthracene-12,14-dione] |  | 66.8% | 77.3% | 227 to 229 °C | 81.9% | 82.1%
CC/C(=C\C12c3ccccc3C(c3ccccc31)C1C(=O)N(Cc3cc(OC)c(OC)c(OC)c3)C(=O)C12)[N+](=O)[O-] (stereo not shown) [Compound 17m, (E)-9-(2-Nitrobut-1-en-1-yl)-13-(3,4,5-trimethoxybenzyl)-9,10-dihydro-9,10-[3,4]epipyrroloanthracene-12,14-dione] |  | 82.2% | 66.8% | 224 to 229 °C | 82.2% | 77.8%
O=C1C2C3c4ccccc4C(/C=C/[N+](=O)[O-])(c4ccccc43)C2C(=O)N1CCc1ccccc1 (stereo not shown) [Compound 17n] | 0.26 µM | 2.8% | 2% | 152 to 156 °C | 19.9% | 0.07%
O=c1n(-c2ccccc2)c(=O)n2n1C1c3ccccc3C2(/C=C/[N+](=O)[O-])c2ccccc21 [Compound 18, (E)-9-(2-Nitrovinyl)-14-phenyl-9,10-dihydro-9,10-[1,2]epitriazoloanthracene-13,15-dione] |  | 75% | 13.2% | 168 to 169 °C | 87.3% | 13.2%
CC(=O)OC1(C#N)CC2c3ccccc3C1(/C=C/[N+](=O)[O-])c1ccccc12 (stereo not shown) [Compound 19d, (E)-11-Cyano-10-(2-nitrovinyl)-9,10-dihydro-9,10-ethanoanthracen-11-yl acetate] |  | 48.9% | 0.69% | 168 to 170 °C | 99.4% | 1%
COC(=O)C1C2c3ccccc3C(/C=C/[N+](=O)[O-])(c3ccccc32)C1C(=O)OC (stereo not shown) [Compound 19e, Dimethyl (E)-9-(2-nitrovinyl)-9,10-dihydro-9,10-ethanoanthracene-11,12-dicarboxylate] |  | 84.7% | 10.7% | 141 to 143 °C | 102% | 10.3%
